From the kinase profiling compilation of Christmann-Franck et al. (2016) come the findings set out here.

The structures appear in SMILES notation.

Sequence of MAP4K2 (human) (Q12851 whole entry, looked up): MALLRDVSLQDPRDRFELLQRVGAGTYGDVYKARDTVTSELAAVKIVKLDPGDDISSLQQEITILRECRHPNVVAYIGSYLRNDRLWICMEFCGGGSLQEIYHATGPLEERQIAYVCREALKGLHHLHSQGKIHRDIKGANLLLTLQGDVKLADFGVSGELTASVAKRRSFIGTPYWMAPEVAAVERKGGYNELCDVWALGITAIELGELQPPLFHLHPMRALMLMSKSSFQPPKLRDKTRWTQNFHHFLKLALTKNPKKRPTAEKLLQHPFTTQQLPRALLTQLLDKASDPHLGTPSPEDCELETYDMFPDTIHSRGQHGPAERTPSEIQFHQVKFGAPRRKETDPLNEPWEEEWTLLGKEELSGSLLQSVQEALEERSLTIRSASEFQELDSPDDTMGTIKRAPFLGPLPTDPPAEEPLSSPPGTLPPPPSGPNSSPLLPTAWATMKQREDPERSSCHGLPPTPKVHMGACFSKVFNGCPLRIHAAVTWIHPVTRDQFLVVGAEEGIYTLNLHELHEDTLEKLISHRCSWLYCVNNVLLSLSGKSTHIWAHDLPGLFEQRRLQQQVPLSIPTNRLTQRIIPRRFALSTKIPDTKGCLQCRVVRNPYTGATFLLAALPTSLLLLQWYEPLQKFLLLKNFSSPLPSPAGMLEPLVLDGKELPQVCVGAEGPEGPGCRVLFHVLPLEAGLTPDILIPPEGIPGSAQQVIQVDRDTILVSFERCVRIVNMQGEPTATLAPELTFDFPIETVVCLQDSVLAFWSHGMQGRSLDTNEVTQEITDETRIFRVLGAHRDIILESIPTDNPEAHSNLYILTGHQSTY
Sequence of IKBKE (human) (Q14164 whole entry, looked up): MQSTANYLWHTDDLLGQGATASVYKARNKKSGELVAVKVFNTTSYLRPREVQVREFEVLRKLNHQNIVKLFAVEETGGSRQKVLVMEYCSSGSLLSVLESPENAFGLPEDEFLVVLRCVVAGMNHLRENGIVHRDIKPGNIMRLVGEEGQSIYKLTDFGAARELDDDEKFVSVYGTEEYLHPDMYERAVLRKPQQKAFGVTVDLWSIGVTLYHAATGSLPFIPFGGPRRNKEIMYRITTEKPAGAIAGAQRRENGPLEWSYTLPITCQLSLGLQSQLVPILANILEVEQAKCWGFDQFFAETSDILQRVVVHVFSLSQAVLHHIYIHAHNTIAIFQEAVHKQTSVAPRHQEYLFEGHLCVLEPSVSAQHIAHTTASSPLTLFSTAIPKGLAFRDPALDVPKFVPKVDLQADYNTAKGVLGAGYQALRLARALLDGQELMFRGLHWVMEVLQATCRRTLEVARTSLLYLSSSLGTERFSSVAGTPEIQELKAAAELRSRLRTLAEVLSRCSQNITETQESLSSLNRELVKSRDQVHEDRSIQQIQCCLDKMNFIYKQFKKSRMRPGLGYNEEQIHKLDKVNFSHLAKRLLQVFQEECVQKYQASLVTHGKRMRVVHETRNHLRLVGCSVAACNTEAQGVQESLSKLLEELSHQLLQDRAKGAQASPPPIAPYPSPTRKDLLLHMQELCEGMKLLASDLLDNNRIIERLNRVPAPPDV

The first experiment addresses AKT3 (human) (UniProt Q9Y243). Nature of the experiment: radiometric filter-binding kinase assay, Kinase HotSpot. As to conditions: compound 0.5 µM; ATP 10 µM.
Usually residual activity stands for the signal under treatment as a percentage of the control signal. In the case of `CCN(CC)CCNC(=O)c1c(C)[nH]c(/C=C2\C(=O)Nc3ccc(Cl)cc32)c1C`, the residual activity stood at 84.2%.

As to `Nc1ncnc2[nH]nc(Nc3ccc(F)cc3)c12`, the residual activity amounted to 104%.

`CNc1cc2c(Nc3cccc(Br)c3)ncnc2cn1`: the residual activity came out at 103%.

In the next experiment the target is CAMK2A (human) (UniProt Q9UQM7). The description is as above. Particulars: compound 0.5 µM; ATP 10 µM.
Sequence of CAMK2A (human) (Q9UQM7 whole entry, looked up): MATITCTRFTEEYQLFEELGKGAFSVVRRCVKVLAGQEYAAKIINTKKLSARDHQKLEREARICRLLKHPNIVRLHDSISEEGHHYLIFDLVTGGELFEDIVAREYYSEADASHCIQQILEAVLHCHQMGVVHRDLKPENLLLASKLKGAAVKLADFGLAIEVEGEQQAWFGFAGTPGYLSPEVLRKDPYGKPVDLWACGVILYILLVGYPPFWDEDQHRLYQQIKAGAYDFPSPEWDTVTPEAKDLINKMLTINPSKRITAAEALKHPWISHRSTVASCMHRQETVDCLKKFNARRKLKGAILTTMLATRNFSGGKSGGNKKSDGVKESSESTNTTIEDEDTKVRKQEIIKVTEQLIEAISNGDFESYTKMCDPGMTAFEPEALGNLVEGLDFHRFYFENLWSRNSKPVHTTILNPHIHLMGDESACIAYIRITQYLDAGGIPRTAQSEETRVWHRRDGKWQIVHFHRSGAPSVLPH
As to `CCN(CC)CCNC(=O)c1c(C)[nH]c(/C=C2\C(=O)Nc3ccc(Cl)cc32)c1C`, the residual activity is 3.6%.

Regarding `Nc1ncnc2[nH]nc(Nc3ccc(F)cc3)c12`, the residual activity was 105%.

Consider `CNc1cc2c(Nc3cccc(Br)c3)ncnc2cn1`, for which the residual activity came to 105%.

For the next experiment, the target named is CAMK2B (human) (UniProt Q13554). The description is as above. Particulars: compound 0.5 µM; ATP 10 µM.
In the case of `CCN(CC)CCNC(=O)c1c(C)[nH]c(/C=C2\C(=O)Nc3ccc(Cl)cc32)c1C`, the residual activity stood at 27.3%.

Take `Nc1ncnc2[nH]nc(Nc3ccc(F)cc3)c12`: the residual activity is 97.7%.

`CNc1cc2c(Nc3cccc(Br)c3)ncnc2cn1`: the residual activity came out at 95.8%.

For the next experiment, the target named is CAMK2D (human) (UniProt Q13557). The description is as above. Particulars: compound 0.5 µM; ATP 10 µM.
For `CCN(CC)CCNC(=O)c1c(C)[nH]c(/C=C2\C(=O)Nc3ccc(Cl)cc32)c1C`, the residual activity came to 7.25%.

As to `Nc1ncnc2[nH]nc(Nc3ccc(F)cc3)c12`, the residual activity amounted to 92.5%.

On to `CNc1cc2c(Nc3cccc(Br)c3)ncnc2cn1`, for which the residual activity stood at 97.9%.

A further experiment has as its target CAMK2G (human) (UniProt Q13555). The experiment is described as above. As to conditions: compound 0.5 µM; ATP 10 µM.
On to `CCN(CC)CCNC(=O)c1c(C)[nH]c(/C=C2\C(=O)Nc3ccc(Cl)cc32)c1C`, for which the residual activity stood at 8.13%.

In the case of `Nc1ncnc2[nH]nc(Nc3ccc(F)cc3)c12`, the residual activity is 119%.

As for `CNc1cc2c(Nc3cccc(Br)c3)ncnc2cn1`, the residual activity came to 105%.

A further experiment concerns the target CDK2 CCNE1 (human) (UniProt P24941+P24864). Described as above. As to conditions: compound 0.5 µM; ATP 10 µM.
For `CCN(CC)CCNC(=O)c1c(C)[nH]c(/C=C2\C(=O)Nc3ccc(Cl)cc32)c1C`, the residual activity came to 90%.

On to `Nc1ncnc2[nH]nc(Nc3ccc(F)cc3)c12`, for which the residual activity is 90.3%.

For `CNc1cc2c(Nc3cccc(Br)c3)ncnc2cn1`, the residual activity was 88.6%.

For the next experiment, the target named is CDK4 CCND1 (human) (UniProt P24385+P11802). Described as above. As to conditions: compound 0.5 µM; ATP 10 µM.
Turning to `CCN(CC)CCNC(=O)c1c(C)[nH]c(/C=C2\C(=O)Nc3ccc(Cl)cc32)c1C`, the residual activity stood at 74.1%.

Consider `Nc1ncnc2[nH]nc(Nc3ccc(F)cc3)c12`, for which the residual activity stood at 90.3%.

As for `CNc1cc2c(Nc3cccc(Br)c3)ncnc2cn1`, the residual activity was determined as 104%.

The next experiment deals with CDK4 CCND3 (human) (UniProt P30281+P11802). The description is as above. As to conditions: compound 0.5 µM; ATP 10 µM.
Sequence of CDK4 CCND3 (human) (P11802 whole entry, looked up): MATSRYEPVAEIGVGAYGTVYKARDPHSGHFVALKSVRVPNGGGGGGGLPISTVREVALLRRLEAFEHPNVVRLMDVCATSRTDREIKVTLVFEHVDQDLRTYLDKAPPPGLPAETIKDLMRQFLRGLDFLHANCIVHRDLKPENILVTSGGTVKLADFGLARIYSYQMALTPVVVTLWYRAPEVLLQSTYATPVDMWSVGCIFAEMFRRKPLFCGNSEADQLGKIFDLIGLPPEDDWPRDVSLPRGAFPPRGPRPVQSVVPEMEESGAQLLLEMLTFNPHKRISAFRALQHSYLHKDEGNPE
Sequence of CDK4 CCND3 (human) (P30281 whole entry, looked up): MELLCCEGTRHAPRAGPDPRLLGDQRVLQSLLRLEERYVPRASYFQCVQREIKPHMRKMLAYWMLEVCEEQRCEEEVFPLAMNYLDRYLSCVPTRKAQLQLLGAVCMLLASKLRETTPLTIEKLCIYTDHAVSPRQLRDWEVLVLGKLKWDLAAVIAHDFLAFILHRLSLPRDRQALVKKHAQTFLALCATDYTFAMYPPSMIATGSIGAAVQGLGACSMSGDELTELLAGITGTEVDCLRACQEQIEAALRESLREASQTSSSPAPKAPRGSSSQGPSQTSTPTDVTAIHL
Take `CCN(CC)CCNC(=O)c1c(C)[nH]c(/C=C2\C(=O)Nc3ccc(Cl)cc32)c1C`: the residual activity was found to be 86.3%.

Consider `Nc1ncnc2[nH]nc(Nc3ccc(F)cc3)c12`, for which the residual activity turned out to be 111%.

As for `CNc1cc2c(Nc3cccc(Br)c3)ncnc2cn1`, the residual activity worked out at 120%.

In another experiment the target is CDK6 CCND3 (human) (UniProt P30281+Q00534). The description is as above. As to conditions: compound 0.5 µM; ATP 10 µM.
Sequence of CDK6 CCND3 (human) (P30281 whole entry, looked up): as above
Sequence of CDK6 CCND3 (human) (Q00534 whole entry, looked up): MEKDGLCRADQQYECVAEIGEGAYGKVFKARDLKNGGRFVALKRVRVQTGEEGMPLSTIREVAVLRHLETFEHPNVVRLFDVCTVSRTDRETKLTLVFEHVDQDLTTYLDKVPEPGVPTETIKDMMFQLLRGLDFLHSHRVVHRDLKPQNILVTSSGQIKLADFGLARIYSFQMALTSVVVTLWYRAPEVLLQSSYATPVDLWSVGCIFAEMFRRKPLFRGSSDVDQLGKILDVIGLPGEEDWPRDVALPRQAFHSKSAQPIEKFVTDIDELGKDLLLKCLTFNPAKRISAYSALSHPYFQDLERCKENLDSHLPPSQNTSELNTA
`CCN(CC)CCNC(=O)c1c(C)[nH]c(/C=C2\C(=O)Nc3ccc(Cl)cc32)c1C`: the residual activity was determined as 41.6%.

Take `Nc1ncnc2[nH]nc(Nc3ccc(F)cc3)c12`: the residual activity worked out at 99.6%.

In the case of `CNc1cc2c(Nc3cccc(Br)c3)ncnc2cn1`, the residual activity stood at 90.8%.

The target in the next experiment is CHEK1 (human) (UniProt O14757). Described as above. Particulars: compound 0.5 µM; ATP 10 µM.
For the molecule `CCN(CC)CCNC(=O)c1c(C)[nH]c(/C=C2\C(=O)Nc3ccc(Cl)cc32)c1C`, the residual activity was determined as 15.1%.

Regarding `Nc1ncnc2[nH]nc(Nc3ccc(F)cc3)c12`, the residual activity was 88%.

As for `CNc1cc2c(Nc3cccc(Br)c3)ncnc2cn1`, the residual activity was found to be 108%.

The target in the next experiment is CLK1 (human) (UniProt P49759). Described as above. As to conditions: compound 0.5 µM; ATP 10 µM.
Sequence of CLK1 (human) (P49759 whole entry, looked up): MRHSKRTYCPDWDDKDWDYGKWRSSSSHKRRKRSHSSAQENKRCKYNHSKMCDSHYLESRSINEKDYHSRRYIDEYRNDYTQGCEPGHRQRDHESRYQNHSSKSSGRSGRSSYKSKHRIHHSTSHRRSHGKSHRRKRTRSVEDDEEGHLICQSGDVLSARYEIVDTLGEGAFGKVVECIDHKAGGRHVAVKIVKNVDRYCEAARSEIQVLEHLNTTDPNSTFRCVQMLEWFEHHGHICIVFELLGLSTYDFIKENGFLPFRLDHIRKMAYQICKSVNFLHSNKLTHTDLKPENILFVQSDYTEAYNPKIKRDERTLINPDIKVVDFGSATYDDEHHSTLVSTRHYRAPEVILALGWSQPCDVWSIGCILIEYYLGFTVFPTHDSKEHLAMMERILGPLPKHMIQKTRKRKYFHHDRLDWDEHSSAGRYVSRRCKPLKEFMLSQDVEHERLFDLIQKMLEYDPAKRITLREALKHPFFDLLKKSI
`CCN(CC)CCNC(=O)c1c(C)[nH]c(/C=C2\C(=O)Nc3ccc(Cl)cc32)c1C`: the residual activity stood at 34.2%.

`Nc1ncnc2[nH]nc(Nc3ccc(F)cc3)c12`: the residual activity is 102%.

Regarding `CNc1cc2c(Nc3cccc(Br)c3)ncnc2cn1`, the residual activity is 106%.

The target in the next experiment is DAPK2 (human) (UniProt Q9UIK4). The description is as above. Particulars: compound 0.5 µM; ATP 10 µM.
Sequence of DAPK2 (human) (Q9UIK4 whole entry, looked up): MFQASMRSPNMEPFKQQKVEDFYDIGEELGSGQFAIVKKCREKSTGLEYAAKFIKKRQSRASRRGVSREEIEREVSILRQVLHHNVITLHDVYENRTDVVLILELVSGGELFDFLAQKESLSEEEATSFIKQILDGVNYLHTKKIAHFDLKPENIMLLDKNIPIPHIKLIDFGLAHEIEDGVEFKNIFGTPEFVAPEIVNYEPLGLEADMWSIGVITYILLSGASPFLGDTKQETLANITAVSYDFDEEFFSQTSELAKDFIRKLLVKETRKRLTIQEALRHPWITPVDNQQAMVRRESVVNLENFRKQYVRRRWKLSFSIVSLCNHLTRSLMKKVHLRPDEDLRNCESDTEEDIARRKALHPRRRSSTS
Consider `CCN(CC)CCNC(=O)c1c(C)[nH]c(/C=C2\C(=O)Nc3ccc(Cl)cc32)c1C`, for which the residual activity turned out to be 86.7%.

For the molecule `Nc1ncnc2[nH]nc(Nc3ccc(F)cc3)c12`, the residual activity came to 85.5%.

Take `CNc1cc2c(Nc3cccc(Br)c3)ncnc2cn1`: the residual activity was determined as 136%.

Another experiment concerns the target DAPK3 (human) (UniProt O43293). The experiment is described as above. Particulars: compound 0.5 µM; ATP 10 µM.
Regarding `CCN(CC)CCNC(=O)c1c(C)[nH]c(/C=C2\C(=O)Nc3ccc(Cl)cc32)c1C`, the residual activity worked out at 54.3%.

On to `Nc1ncnc2[nH]nc(Nc3ccc(F)cc3)c12`, for which the residual activity came out at 124%.

On to `CNc1cc2c(Nc3cccc(Br)c3)ncnc2cn1`, for which the residual activity worked out at 90.9%.

The target in another experiment is EPHB3 (human) (UniProt P54753). The description is as above. Particulars: compound 0.5 µM; ATP 10 µM.
With `CCN(CC)CCNC(=O)c1c(C)[nH]c(/C=C2\C(=O)Nc3ccc(Cl)cc32)c1C`, the residual activity was 100%.

Consider `Nc1ncnc2[nH]nc(Nc3ccc(F)cc3)c12`, for which the residual activity stood at 87.7%.

In the case of `CNc1cc2c(Nc3cccc(Br)c3)ncnc2cn1`, the residual activity was found to be 92.7%.

In another experiment the target is FRK (human) (UniProt P42685). Described as above. Particulars: compound 0.5 µM; ATP 10 µM.
As for `CCN(CC)CCNC(=O)c1c(C)[nH]c(/C=C2\C(=O)Nc3ccc(Cl)cc32)c1C`, the residual activity was found to be 59.3%.

For the molecule `Nc1ncnc2[nH]nc(Nc3ccc(F)cc3)c12`, the residual activity amounted to 90%.

With `CNc1cc2c(Nc3cccc(Br)c3)ncnc2cn1`, the residual activity stood at 91.2%.

The target of the next experiment is HIPK1 (human) (UniProt Q86Z02). Described as above. Particulars: compound 0.5 µM; ATP 10 µM.
Take `CCN(CC)CCNC(=O)c1c(C)[nH]c(/C=C2\C(=O)Nc3ccc(Cl)cc32)c1C`: the residual activity was determined as 96.9%.

Take `Nc1ncnc2[nH]nc(Nc3ccc(F)cc3)c12`: the residual activity was 106%.

Consider `CNc1cc2c(Nc3cccc(Br)c3)ncnc2cn1`, for which the residual activity stood at 96.5%.

Another experiment concerns the target IKBKE (human) (UniProt Q14164). The description is as above. Particulars: compound 0.5 µM; ATP 10 µM.
Turning to `CCN(CC)CCNC(=O)c1c(C)[nH]c(/C=C2\C(=O)Nc3ccc(Cl)cc32)c1C`, the residual activity turned out to be 29.4%.

With `Nc1ncnc2[nH]nc(Nc3ccc(F)cc3)c12`, the residual activity is 100%.

For `CNc1cc2c(Nc3cccc(Br)c3)ncnc2cn1`, the residual activity was found to be 87.1%.

The next experiment has as its target IRAK1 (human) (UniProt P51617). The experiment is described as above. As to conditions: compound 0.5 µM; ATP 10 µM.
As to `CCN(CC)CCNC(=O)c1c(C)[nH]c(/C=C2\C(=O)Nc3ccc(Cl)cc32)c1C`, the residual activity was found to be 14.1%.

For `Nc1ncnc2[nH]nc(Nc3ccc(F)cc3)c12`, the residual activity was 91.8%.

With `CNc1cc2c(Nc3cccc(Br)c3)ncnc2cn1`, the residual activity came to 85.2%.

The next experiment has as its target ITK (human) (UniProt Q08881). The experiment is described as above. As to conditions: compound 0.5 µM; ATP 10 µM.
As to `CCN(CC)CCNC(=O)c1c(C)[nH]c(/C=C2\C(=O)Nc3ccc(Cl)cc32)c1C`, the residual activity turned out to be 30%.

Consider `Nc1ncnc2[nH]nc(Nc3ccc(F)cc3)c12`, for which the residual activity is 93.9%.

In the case of `CNc1cc2c(Nc3cccc(Br)c3)ncnc2cn1`, the residual activity is 92.5%.

For a further experiment, the target named is JAK3 JH1 JH2 (human) (UniProt P52333). The experiment is described as above. As to conditions: compound 0.5 µM; ATP 10 µM.
Sequence of JAK3 JH1 JH2 (human) (P52333 whole entry, looked up): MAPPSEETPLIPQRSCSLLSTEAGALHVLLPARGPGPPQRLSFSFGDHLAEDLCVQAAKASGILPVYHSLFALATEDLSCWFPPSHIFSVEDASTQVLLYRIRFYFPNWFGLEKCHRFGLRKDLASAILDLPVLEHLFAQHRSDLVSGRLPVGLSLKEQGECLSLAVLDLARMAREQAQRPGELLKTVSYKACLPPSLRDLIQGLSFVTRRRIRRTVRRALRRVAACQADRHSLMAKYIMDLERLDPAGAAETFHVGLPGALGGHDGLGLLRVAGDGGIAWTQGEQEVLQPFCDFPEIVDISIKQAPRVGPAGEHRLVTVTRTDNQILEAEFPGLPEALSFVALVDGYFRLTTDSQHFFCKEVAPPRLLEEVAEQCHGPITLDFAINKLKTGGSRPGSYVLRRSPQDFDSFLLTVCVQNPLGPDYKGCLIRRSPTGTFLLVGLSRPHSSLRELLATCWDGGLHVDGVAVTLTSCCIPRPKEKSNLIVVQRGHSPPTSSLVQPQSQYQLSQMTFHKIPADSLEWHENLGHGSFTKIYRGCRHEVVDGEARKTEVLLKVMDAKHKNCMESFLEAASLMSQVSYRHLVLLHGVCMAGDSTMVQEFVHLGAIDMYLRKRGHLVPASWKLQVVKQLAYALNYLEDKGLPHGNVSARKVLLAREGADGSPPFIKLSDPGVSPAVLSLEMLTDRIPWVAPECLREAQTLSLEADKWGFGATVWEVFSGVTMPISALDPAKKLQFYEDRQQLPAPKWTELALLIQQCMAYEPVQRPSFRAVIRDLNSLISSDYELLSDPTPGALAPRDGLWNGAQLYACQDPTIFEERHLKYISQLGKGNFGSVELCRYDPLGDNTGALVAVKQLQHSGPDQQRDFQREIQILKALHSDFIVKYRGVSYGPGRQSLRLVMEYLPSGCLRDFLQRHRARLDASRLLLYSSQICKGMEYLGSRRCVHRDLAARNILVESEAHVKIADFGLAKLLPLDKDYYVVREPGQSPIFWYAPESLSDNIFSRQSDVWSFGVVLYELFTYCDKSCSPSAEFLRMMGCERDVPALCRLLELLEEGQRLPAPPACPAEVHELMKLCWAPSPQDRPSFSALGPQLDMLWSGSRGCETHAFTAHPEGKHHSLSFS
With `CCN(CC)CCNC(=O)c1c(C)[nH]c(/C=C2\C(=O)Nc3ccc(Cl)cc32)c1C`, the residual activity turned out to be 39.3%.

For the molecule `Nc1ncnc2[nH]nc(Nc3ccc(F)cc3)c12`, the residual activity stood at 102%.

On to `CNc1cc2c(Nc3cccc(Br)c3)ncnc2cn1`, for which the residual activity stood at 103%.

Another experiment concerns the target MAP4K2 (human) (UniProt Q12851). Described as above. As to conditions: compound 0.5 µM; ATP 10 µM.
In the case of `CCN(CC)CCNC(=O)c1c(C)[nH]c(/C=C2\C(=O)Nc3ccc(Cl)cc32)c1C`, the residual activity came out at 8.07%.

Consider `Nc1ncnc2[nH]nc(Nc3ccc(F)cc3)c12`, for which the residual activity came to 88.9%.

For the molecule `CNc1cc2c(Nc3cccc(Br)c3)ncnc2cn1`, the residual activity turned out to be 74.8%.
